According to PubChem BioAssay (NCI):
“And” between values parts separate entries of the source, which are not always exact repeats. Identical values can stand only once.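 Test compounds were applied to cells in 96-well plates for 48 hours at 5 doses. GI50: concentration for 50% inhibition of growth. TGI is the concentration that stops growth completely.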

Legend:
Experiment in all cases: DTP human tumour cell line panel, 48 h
MCF7 breast = test system: MCF7 breast
UACC-62 melanoma = test system: UACC-62 melanoma
KM12 colon = test system: KM12 colon
DU-145 prostate = test system: DU-145 prostate
M19-MEL melanoma = test system: M19-MEL melanoma
DLD-1 colon = test system: DLD-1 colon
SF-268 CNS = test system: SF-268 CNS
EKVX NSCLC = test system: EKVX NSCLC
LXFL 529 NSCLC = test system: LXFL 529 NSCLC
NCI-H23 lung = test system: NCI-H23 lung
SR leukemia = test system: SR leukemia
DMS 114 small cell lung = test system: DMS 114 small cell lung

| Compound | TGI (MCF7 breast) | TGI (UACC-62 melanoma) | TGI (KM12 colon) | TGI (DU-145 prostate) | TGI (M19-MEL melanoma) | TGI (DLD-1 colon) | TGI (SF-268 CNS) | TGI (EKVX NSCLC) | TGI (LXFL 529 NSCLC) | TGI (NCI-H23 lung) | TGI (SR leukemia) | TGI (DMS 114 small cell lung) | GI50 (MCF7 breast) | GI50 (UACC-62 melanoma) | GI50 (KM12 colon) | GI50 (DU-145 prostate) | GI50 (SF-268 CNS) | GI50 (EKVX NSCLC) | GI50 (NCI-H23 lung) | GI50 (SR leukemia) |
| --- | --- | --- | --- | --- | --- | --- | --- | --- | --- | --- | --- | --- | --- | --- | --- | --- | --- | --- | --- | --- |
| S=c1[nH]nc(Cc2ccccc2)c(=S)[nH]1 | > 100 µM | > 50.1 µM | > 100 µM | > 100 µM | > 100 µM | > 100 µM | > 21.3 µM | > 31.6 µM | > 100 µM | > 100 µM | > 100 µM | – | – | – | – | – | – | – | – | – |
| Cc1nnc2c3nnc(C)n3c3ccccc3n12 | – | > 100 µM | > 100 µM | – | – | > 100 µM | > 100 µM | > 100 µM | > 100 µM | > 100 µM | – | > 100 µM | – | – | – | – | – | – | – | – |
| CC1=C(/C=C/C(C)=C/C=C/C(C)=C/C=N/NC(=S)NC(=S)N/N=C/C=C(C)/C=C/C=C(C)/C=C/C2=C(C)CCCC2(C)C)C(C)(C)CCC1 | 12.5 µM and 7.5 µM | 6.09 µM and 2.43 µM | 9.21 µM and 3.97 µM | 12.5 µM and 8.77 µM | – | – | 11.9 µM and 9.11 µM | 11.3 µM and 7.77 µM | – | 7.28 µM and 4.37 µM | 8.12 µM and 3.79 µM | – | 2380 nM and 1830 nM | 1.48 µM and 0.89 µM | 2.74 µM and 1.32 µM | 5.79 µM and 2.55 µM | 5.38 µM and 2.47 µM | 3.97 µM and 1.66 µM | 1.76 µM and 1.17 µM | 1430 nM and 938 nM |
| COc1ccc2c(C3(c4cn(C)c5cc(OC)ccc45)C(=O)Nc4ccc(Cl)cc43)cn(C)c2c1 | > 100 µM | 25 µM | 21.1 µM | > 100 µM | – | – | > 100 µM | > 100 µM | – | > 100 µM | 6.83 µM | – | 3090 nM | 3.49 µM | 3.82 µM | 4.84 µM | 3.67 µM | 2.6 µM | 3.99 µM | 2640 nM |
| CC1=CC(=O)C(C(C)C)=CC1=Nc1cc(Br)c(O)c(Br)c1 | 17.7 µM | 13.1 µM | 7.01 µM | 11.7 µM | – | – | 17.2 µM | 36 µM | – | 26.1 µM | 15.8 µM | – | 4270 nM | 2.86 µM | 2.33 µM | 3.58 µM | 4.49 µM | 4.51 µM | 4.26 µM | 3450 nM |
| COC(=O)C1OC2(CCCC3CC32)O[C@H]1C(=O)OC (some centres not stated) | > 100 µM | > 100 µM | > 100 µM | > 100 µM | – | – | > 100 µM | > 100 µM | – | > 100 µM | > 100 µM | – | – | – | – | – | – | – | – | – |
| CC(=O)c1c(CN(C)c2ccccc2)n([O-])c2ccccc2[n+]1=O | 63 µM | 83.8 µM | > 100 µM | > 100 µM | – | – | 79.9 µM | > 100 µM | – | 35.3 µM | > 100 µM | – | 15000 nM | 23.9 µM | 29.6 µM | 42.1 µM | 24.1 µM | 41.2 µM | 16.4 µM | 5790 nM |
| NC(=O)c1c([N+](=O)[O-])cc(C(F)(F)F)cc1[N+](=O)[O-] | – | > 100 µM | > 100 µM | – | – | > 100 µM | > 100 µM | > 100 µM | > 100 µM | 98.9 µM | > 100 µM | 73.3 µM | – | – | – | – | – | – | – | – |
| Clc1ccc(-c2nnc(-c3cccc4ccccc34)o2)cc1Cl | > 100 µM | > 100 µM | > 100 µM | > 100 µM | – | – | > 100 µM | > 100 µM | – | > 100 µM | > 100 µM | – | – | – | – | – | – | – | – | – |
| CN(COC(=O)c1ccccc1)c1nc(N(C)COC(=O)c2ccccc2)nc(N(C)COC(=O)c2ccccc2)n1 | > 100 µM | > 100 µM | > 100 µM | > 100 µM | – | – | > 88.1 µM | > 100 µM | – | > 100 µM | > 100 µM | – | – | – | – | – | – | – | – | – |
| CCC(c1ccc(OC)cc1)C(CC)c1ccc(O)c(CN2CCN(C)CC2)c1 (configuration not stated) | 5.09 µM | 4.16 µM | 12 µM | 24.1 µM | – | – | 21.5 µM | 19.2 µM | – | 20.6 µM | 5.44 µM | – | 2420 nM | 1.99 µM | 3.68 µM | 11.3 µM | 7.66 µM | 5.37 µM | 6.37 µM | 1710 nM |
| O=C(CN1CCN(c2cc3c(cc2F)c(=O)c(C(=O)O)cn3C2CC2)CC1)Nc1nc(-c2ccc(Cl)cc2)cs1 | 36.1 µM | > 100 µM | > 100 µM | 28.4 µM | – | – | > 100 µM | > 100 µM | – | > 100 µM | 53.1 µM | – | 3060 nM | 3.66 µM | 3.69 µM | 4.03 µM | 4.19 µM | 4.45 µM | 3.1 µM | 3580 nM |
| NC1=NC(c2ccc(Cl)cc2)N(c2ccc(S(N)(=O)=O)cc2)C(N)=N1 (configuration not stated) | > 100 µM | > 100 µM | > 100 µM | > 100 µM | – | – | > 100 µM | > 100 µM | – | > 100 µM | > 100 µM | – | – | – | – | – | – | – | – | – |
| COc1cccc2c1-c1c(c3ccc([N+](=O)[O-])cc3c(=O)n1CCCN)C2=O | 1.59 µM | 7.95 µM | > 24.1 µM | 6.15 µM | – | – | 2.94 µM | 5.08 µM | – | 3.01 µM | 0.379 µM | – | 48.6 nM | 1.89 µM | 2.02 µM | 1.06 µM | 1.15 µM | 2.17 µM | 1.39 µM | 25.6 nM |
| Cc1cn(C2C=CC(CO)O2)c(=O)[nH]c1=O (configuration not stated) | > 1000 µM | > 1000 µM | > 1000 µM | > 1000 µM | – | – | > 1000 µM | > 1000 µM | – | > 1000 µM | > 1000 µM | – | – | – | – | – | – | – | – | – |
| Brc1ccc2[nH]cc(-c3nc(-c4c[nH]c5ncccc45)cs3)c2c1 | 13.7 µM | 16.6 µM | 10.4 µM | 15.7 µM | – | – | 19.8 µM | 18.6 µM | – | 18.7 µM | 14.3 µM | – | 2570 nM | 3.64 µM | 2.92 µM | 4.14 µM | 5.47 µM | 2.13 µM | 3.55 µM | 3250 nM |
| Cc1ccc(-c2c3c(nn2-c2ccc(S(N)(=O)=O)cc2)-c2ccccc2C3)cc1 | > 100 µM | 24.1 µM | 43.6 µM | 33.1 µM | – | – | 44.7 µM | 51.7 µM | – | 45.2 µM | 60.2 µM | – | 30300 nM | 11.3 µM | 15.5 µM | 15.6 µM | 20.3 µM | 19.5 µM | 22.3 µM | 15200 nM |
